Among the data in patent US20240246980A1, “MODULATORS OF MAS-RELATED G-PROTEIN RECEPTOR D AND RELATED PRODUCTS AND METHODS” (Escient Pharmaceuticals, Inc., priority 2022, published 2024) are IC50 values, retold here.

In this test the target is human MRGPRD (Homo sapiens, UniProt Q8TDS7). The experiment in a line: MRGPRD antagonist activity, IP-One HTRF assay in CHO cells stably expressing human MRGPRD (versus 100 μM β-Alanine agonist). Type of test: cell-based. A digest of the protocol: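 Cells (20,000/well, plated overnight) received antagonist and agonist in buffer with 5.7 mM Tris-HCl, 43 mM NaCl and 50 mM LiCl at pH 8. Incubation ran 1 h at 37 °C, then 1 h at room temperature, before IP-1 HTRF detection. IC50 was fitted from the HTRF ratio, and percent antagonism was taken relative to the maximum efficacy response, given as averages with SEM.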
human MRGPRD, sequence (Q8TDS7 whole entry): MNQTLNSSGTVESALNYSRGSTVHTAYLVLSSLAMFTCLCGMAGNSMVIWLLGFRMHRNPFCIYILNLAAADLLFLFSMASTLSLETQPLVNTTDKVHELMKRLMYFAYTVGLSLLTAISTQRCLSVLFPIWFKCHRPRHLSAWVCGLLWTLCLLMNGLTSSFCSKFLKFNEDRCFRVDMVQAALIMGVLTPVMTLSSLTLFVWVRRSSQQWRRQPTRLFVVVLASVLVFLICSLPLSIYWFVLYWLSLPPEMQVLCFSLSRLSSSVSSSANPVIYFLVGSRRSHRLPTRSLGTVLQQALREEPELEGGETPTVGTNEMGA

On to `COc1cccc(-c2nc([C@H]3CCN(C(=O)Nc4ccccc4F)C3)n3ccccc23)c1` [Compound 21-2], for which the IC50 (usually the concentration needed to halve the response being measured) lay in the range of 1000 to 3000 nM.
As for `COc1cccc(-c2nc(C3CCCN(C(=O)N(C)c4ccccc4F)C3)n3ccccc23)c1` (stereo not shown) [Compound 1-3], the IC50 was in the range of 1000 to 3000 nM.
With `COc1cccc(-c2nc(C3CCCN(C(=O)c4ccc(F)cc4)C3)n3ccccc23)c1` (stereo not shown) [Compound 12-3] the figure was 500 to 1000 nM; with `COc1cccc(-c2nc([C@@H]3CCCN(C(=O)Nc4cccc(-c5csc(C)n5)c4)C3)n3ccccc23)c1` [Compound 5-61], less than 100 nM; with `COc1cccc(-c2nc([C@@H]3CCCN(C(=O)Nc4ccc(CC#N)cc4)C3)n3ccccc23)c1` [Compound 5-63], less than 100 nM.
With `COc1cccc(-c2nc(C3CCCN(C(=O)Nc4ccccc4OC)C3)n3ccccc23)c1` (stereo not shown) [Compound 3-8] the figure was 100 to 500 nM; with `COc1cccc(-c2nc(C3CCCN(C(=O)Nc4cc(OC)c(OC)c(OC)c4)C3)n3ccccc23)c1` (stereo not shown) [Compound 4-2, 3-(1-(3-methoxyphenyl)imidazo[1,5-a]pyridin-3-yl)-N-(3,4,5-trimethoxyphenyl)piperidine-1-carboxamide], less than 100 nM.
As to `COc1cccc(-c2nc([C@@H]3CCCN(C(=O)Nc4cccc(C#N)c4)C3)n3ccccc23)c1` [Compound 1-16], the IC50 is 100 to 500 nM.
In turn, `COc1cccc(-c2nn(C3CCCN(C(=O)Nc4cccc(N(C)C)c4)C3)c3ncccc23)c1` (stereo not shown) [Compound 9-2] came in with an IC50 of less than 100 nM.
As for `COc1cccc(-c2nc([C@@H]3CCCN(C(=O)Nc4ccc5nc(C(C)(C)C)[nH]c5c4)C3)n3ccccc23)c1` [Compound 5-42], the IC50 is less than 100 nM.
`CNC(=O)N1CCC[C@@H](c2nc(-c3cccc(OC)c3)c3ccccn23)C1` [Compound 2-1, (R)-3-(1-(3-methoxyphenyl)imidazo[1,5-a]pyridin-3-yl)-N-methylpiperidine-1-carboxamide] gave an IC50 of more than 3000 nM.
As to `CN(C)c1ccc(NC(=O)N2CCC[C@@H](c3nc(-c4ccccc4S(C)(=O)=O)c4ccccn34)C2)cc1` [Compound 10-66], the IC50 was more than 3000 nM.
Take `COc1cccc(-c2nc(C3CCCN(C(=O)Nc4ccc(N(C)C)cc4)C3)n3ncccc23)c1` (stereo not shown) [Compound 5-20]: the IC50 is less than 100 nM.
With `COc1cccc(-c2nc(C3CCCN(C(=O)Nc4ccc(OC)cc4C)C3)n3ccccc23)c1` (stereo not shown) [Compound 3-12] the figure was 100 to 500 nM; with `COc1cccc(-c2nc([C@@H]3CCCN(C(=O)Nc4ccc5c(c4)CCC5)C3)n3ccccc23)c1` [Compound 5-32], 100 to 500 nM.
The compound `COc1cccc(-c2nc([C@@H]3CCCN(C(=O)Nc4cccc(CO)c4)C3)n3ccccc23)c1` [Compound 6-1, (R)—N-(3-(hydroxymethyl)phenyl)-3-(1-(3-methoxyphenyl)imidazo[1,5-a]pyridin-3-yl)piperidine-1-carboxamide] registered an IC50 of less than 100 nM.
With `COc1cccc(-c2nc([C@@H]3CCCN(C(=O)N[C@H]4CC[C@@H](O)CC4)C3)n3ccccc23)c1` [Compound 5-56] the figure was 100 to 500 nM; with `CN(C)c1ccc(NC(=O)N2CCC[C@@H](c3nc(-c4ccccc4C(F)(F)F)c4ccccn34)C2)cc1` [Compound 10-3], 500 to 1000 nM; with `COc1cccc(-c2nc([C@@H]3CCCN(C(=O)NC4CC(C)C4)C3)n3ccccc23)c1` (stereo partly shown) [Compound 5-71], less than 100 nM.
Consider `COc1cccc(-c2nc(C3CCCN(C(=O)Nc4ccccc4F)C3)n3cccc(C)c23)c1` (stereo not shown) [Compound 17-1, N-(2-fluorophenyl)-3-(1-(3-methoxyphenyl)-8-methylimidazo[1,5-a]pyridin-3-yl)piperidine-1-carboxamide], for which the IC50 is 100 to 500 nM.
With `COc1cccc(-c2nn([C@H]3CCCN(C(=O)Nc4cccc(N(C)C)c4)C3)c3ncccc23)c1` [Compound 20-3] the figure was 1000 to 3000 nM; with `COc1cccc(-c2nn([C@@H]3CCCN(C(=O)Nc4ccc(N(C)C)cc4)C3)c3ncccc23)c1` [Compound 20-1, (R)—N-(4-(dimethylamino)phenyl)-3-(3-(3-methoxyphenyl)-1H-pyrazolo[3,4-b]pyridin-1-yl)piperidine-1-carboxamide], less than 100 nM.
`CN(C)c1ccc(NC(=O)N2CCC[C@@H](c3nc(-c4nn(C)c5ccccc45)c4ccccn34)C2)cc1` [Compound 10-68] displayed an IC50 of 500 to 1000 nM.
In turn, `CC(=O)c1ccc(-c2nc([C@@H]3CCCN(C(=O)Nc4ccc(N(C)C)cc4)C3)n3ccccc23)cc1` [Compound 10-36] yielded an IC50 of 500 to 1000 nM.
As for `COc1cccc(-c2nc(-c3cccc(C(=O)Nc4ccc(N(C)C)cc4)c3)n3ccccc23)c1` [Compound 8-2], the IC50 is less than 100 nM.
On to `COc1cccc(-c2nc(C3CCCN(C(=O)Nc4ccccc4)C3)n3ccccc23)c1` (stereo not shown) [Compound 3-6], for which the 50% inhibitory concentration (IC50) lay in the range of 100 to 500 nM.
With `CN(C)c1ccc(NC(=O)N2CCC[C@@H](c3nc(-c4cccc5c4CCC5)c4ccccn34)C2)cc1` [Compound 10-50] the figure was less than 100 nM; with `COc1cccc(-c2nc([C@@H]3CCCN(C(=O)NC4CCc5ccccc5C4)C3)n3ccccc23)c1` (stereo partly shown) [Compound 5-38], 100 to 500 nM; with `COc1cccc(-c2nc([C@@H]3CCCN(C(=O)NCCc4nc(C)cs4)C3)n3ccccc23)c1` [Compound 5-30], 100 to 500 nM.
With `COc1cccc(-c2nc(C3CCCN(S(=O)(=O)Cc4ccccc4F)C3)n3ccccc23)c1` (stereo not shown) [Compound 16-5] the figure was more than 3000 nM; with `CN(C)c1ccc(NC(=O)N2CCC[C@@H](c3nc(-c4ccccc4)c4ccccn34)C2)cc1` [Compound 10-2], 500 to 1000 nM; with `COc1cccc(-c2nc([C@@H]3CCCN(C(=O)Nc4cnc(C)nc4)C3)n3ccccc23)c1` [Compound 5-73], less than 100 nM.
Compound `COc1cccc(-c2nc([C@@H]3CCCN(C(=O)Nc4ccccc4OC)C3)n3ccccc23)c1` [Compound 5-11] gave a 50% inhibitory concentration (IC50) of 100 to 500 nM.
`CNc1cccc(-c2nc([C@@H]3CCCN(C(=O)Nc4ccc(N(C)C)cc4)C3)n3ccccc23)c1` [Compound 10-40]: the IC50 was 500 to 1000 nM.
The compound `CC(C)Oc1cccc(-c2nc([C@@H]3CCCN(C(=O)Nc4ccc(N(C)C)cc4)C3)n3ccccc23)c1` [Compound 10-13] came in with an IC50 of 500 to 1000 nM.
Compound `COc1cccc(-c2nc(C3CCCN(C(=O)Cc4ccccc4OC)C3)n3c(OC)cccc23)c1` (stereo not shown) [Compound 15-1, 1-(3-(5-methoxy-1-(3-methoxyphenyl)imidazo[1,5-a]pyridin-3-yl)piperidin-1-yl)-2-(2-methoxyphenyl)ethan-1-one] returned an IC50 of 500 to 1000 nM.
`CCc1csc(NC(=O)N2CCC[C@@H](c3nc(-c4cccc(OC)c4)c4ccccn34)C2)n1` [Compound 5-54] came in with an IC50 of 500 to 1000 nM.
`COc1cccc(-c2nc([C@@H]3CCCN(C(=O)Nc4ccc(C)c(C)c4)C3)n3ccccc23)c1` [Compound 1-10]: the IC50 was in the range of 100 to 500 nM.
In turn, `COc1cccc(-c2nc(C3CCCN(C(=O)c4ccc(C)cc4F)C3)n3ccccc23)c1` (stereo not shown) [Compound 12-7] yielded an IC50 of 500 to 1000 nM.
`COc1ccc(-c2nc([C@H]3CCCN(C(=O)Nc4ccc(N(C)C)cc4)C3)n3ccccc23)cc1` [Compound 10-48] showed an IC50 of 1000 to 3000 nM.
As to `COc1cccc(-c2nc([C@@H]3CCCN(C(=O)Nc4ccc(OC(F)(F)F)cc4)C3)n3ccccc23)c1` [Compound 5-21], the IC50 lay within 500 to 1000 nM.
As for `COc1ccc(NC(=O)N2CCC[C@H](c3nc(-c4cccc(OC)c4)c4ccccn34)C2)cc1` (stereo in doubt) [Compound 5-29], the IC50 fell in the range of 1000 to 3000 nM.
The compound `COc1cccc(-c2nc([C@@H]3CCCN(C(=O)Nc4noc(C)c4C)C3)n3ccccc23)c1` [Compound 1-33] returned an IC50 of less than 100 nM.
`COc1cccc(-c2nc([C@@H]3CCCN(C(=O)N[C@H]4CC[C@H](O)CC4)C3)n3ccccc23)c1` [Compound 5-70] returned an IC50 of less than 100 nM.
For the compound `COc1cccc(-c2nc([C@@H]3CCCN(C(=O)Nc4ccccc4C(C)=O)C3)n3ccccc23)c1` [Compound 5-34], the IC50 was in the range of 1000 to 3000 nM.
Consider `COc1cccc(-c2nc(C3CCCN(C(=O)Nc4ccc(C)cc4)C3)n3ccccc23)c1` (stereo not shown) [Compound 3-5], for which the 50% inhibitory concentration (IC50) is 100 to 500 nM.
`CCc1ccccc1NC(=O)N1CCCC(c2nc(-c3cccc(OC)c3)c3ccccn23)C1` (stereo not shown) [Compound 3-15] displayed an IC50 of more than 3000 nM.
With `COc1cccc(-c2nc(C3CCCN(S(=O)(=O)Cc4cccc(F)c4)C3)n3ccccc23)c1` (stereo not shown) [Compound 16-4] the figure was 100 to 500 nM; with `COc1cccc(-c2nc([C@@H]3CCCN(C(=O)Nc4ccc(C)cc4F)C3)n3ccccc23)c1` [Compound 1-11], 100 to 500 nM; with `COc1ccc(NC(=O)N2CCC[C@@H](c3nc(-c4cccc(OC)c4)c4ccccn34)C2)cc1` [Compound 1-17], less than 100 nM.
With `CN(C)c1ccc(NC(=O)N2CCC[C@@H](c3nc(-c4ccc(Cl)cc4)c4ccccn34)C2)cc1` [Compound 10-19] the figure was 500 to 1000 nM; with `COc1cc(OC)cc(-c2nc([C@@H]3CCCN(C(=O)Nc4ccc(N(C)C)cc4)C3)n3ccccc23)c1` [Compound 10-17], less than 100 nM; with `COc1cccc(-c2nc([C@@H]3CCCN(C(=O)Nc4cccc(N(C)C)c4)C3)n3ccccc23)c1` [Compound 5-36], 100 to 500 nM.
`COc1cccc(-c2nc([C@H]3CCCN(S(=O)(=O)Cc4ccc(F)cc4)C3)n3ccccc23)c1` [Compound 16-8] had an IC50 of 1000 to 3000 nM.
`COc1ccc(-c2nc([C@@H]3CCCN(C(=O)Nc4ccc(N(C)C)cc4)C3)n3ccccc23)cc1` [Compound 10-43] showed an IC50 of 500 to 1000 nM.
For `COc1cccc(-c2nn([C@@H]3CCCN(C(=O)Nc4cccc(N(C)C)c4)C3)c3ncccc23)c1` [Compound 20-2], the IC50 is less than 100 nM.
`COc1cccc(-c2nc(C3CCCN(C(=O)Nc4cccc(OC)c4C)C3)n3ccccc23)c1` (stereo not shown) [Compound 3-26] returned an IC50 of 100 to 500 nM.
On to `CN(C)C(=O)c1ccc(-c2nc([C@@H]3CCCN(C(=O)Nc4ccc(N(C)C)cc4)C3)n3ccccc23)cc1` [Compound 10-46], for which the IC50 is more than 3000 nM.
